1 compound from patent US20120258974A1, “USE OF A2B ADENOSINE RECEPTOR ANTAGONISTS FOR TREATING HEART FAILURE AND ARRHYTHMIA IN POST-MYOCARDIAL INFARCTION PATIENTS” (GILEAD SCIENCES, INC., priority 2011, published 2012) can be followed below.

Structures are written as SMILES.

Assay [1] relates to rats with MI (25 minutes coronary occlusion followed by reperfusion). In words: VT inducibility in rat model of post-MI remodeling (Example 6). The class given is in vivo. Particulars: 5 weeks post-MI; total N 11. How it is done:
(§1) The effects of Compound A in a rat model of post-MI remodeling and VT were determined. MI was caused by 25 minutes occlusion at the left anterior descending coronary ligation followed by reperfusion. One week later, rats were administered either vehicle or Compound A (100 mg/kg) once daily by oral gavage. Serial echocardiograms (ECHOs) to measure LV ejection fraction (LVEF), stroke volume and LV end systolic volume (LVESV) were obtained at baseline, 1 week and 5 week post-MI. Electrophysiological studies, optical mapping, histology and biomarker analysis were conducted at 5 week post-MI.
Ventricular tachycardia (VT) is a common cause of mortality in post-MI patients, even with current coronary revascularization treatment. In this rat model of post-MI remodeling, VT was consistently inducible in more than half of the animals. Thus, the effect of Compound A in VT inducibility was determined at 5 weeks post-MI.

For assay [2] the test system is unchanged. In words: Rat model of post-MI remodeling: serial echocardiograms (Example 6). The class given is in vivo. The method, then: as §1
Assay [3] deals with CD45 expression (leukocytes) in the heart. In words: Inflammatory infiltrate: CD45 expression in the heart by Western blot (Example 4). The class given is in vivo, mouse. The following applies: 72 hours after AMI; 4 mg/kg i.p. twice daily. How it is done: (§2) Adult out-bred male CD1 mice (8-12 weeks of age) were supplied by Harlan Sprague Dawley (Indianapolis, Ind.). The experiments were conducted under the guidelines of laboratory animals for biomedical research published by National Institutes of Health (No. 85-23, revised 1996). The study protocol was approved by the Virginia Commonwealth University Institutional Animal Care and Use Committee. Experimental AMI was induced by permanent coronary artery ligation in order to induce a large non-reperfused infarct involving approximately 30% of the left ventricle and leading to an ischemic dilated cardiomyopathy (Mezzaroma et al. Proc Natl Acad Sci 2011—in press and Abbate et al. Circulation 2008; 117:2670-83). Briefly, mice were orotracheally intubated under anesthesia (pentobarbital 50 to 70 mg/kg), placed in the right lateral decubitus position, then subjected to a left thoracotomy, pericardiectomy, and ligation of the proximal left coronary artery. The chest was closed and the animals were allowed to recover. […]
In order to quantify the inflammatory infiltrate in the heart during AMI, this example measured CD45 expression (a marker for leukocytes) in the heart using Western Blot. […] The band intensity was determined by densitometric analysis using the Scion Image software and the results were expressed as percentage increase in intensity compared to the control sham samples.

In assay [4] the test system is CD1 mice with experimental AMI (permanent coronary artery ligation). In words: Survival after coronary artery ligation surgery (Example 4). The format is in vivo, mouse. Particulars: P=0.14; vehicle 50%. How it is done:
as §2
Differences between the groups were analyzed using the one-way ANOVA followed by Bonferroni test. Changes in repeated measures of echocardiographic data were analyzed using the random effects ANOVA for repeated-measures to determine the main effect of time, group, and time-by-group interaction. […]

For assay [5], the system named is human cardiac myocytes (HCM). In words: NECA-induced IL-6 release from human cardiac myocytes (Example 7). The format is cell-based. Particulars: NECA in combination with antagonist. The method, then: This example uses human cardiac myocytes to test two other A2B adenosine receptor antagonists on their effect on NECA-induced IL-6 release.
Human cardiac myocytes (HCM) were treated with NECA alone, or in combination with Compound A, Compound B (N-[5-(1-cyclopropyl-2,6-dioxo-3-propyl-2,3,6,7-tetrahydro-1H-purin-8-yl)-pyridin-2-yl]-N-ethyl-nicotinamide, also known as ATL-801) or Compound C (2-(4-benzyloxy-phenyl)-N-[5-(2,6-dioxo-1,3-dipropyl-2,3,6,7-tetrahydro-1H-purin-8-yl)-1-methyl-1H-pyrazol-3-yl]-acetamide).

Turning to `CCCn1c(=O)c2[nH]c(-c3cnn(Cc4cccc(C(F)(F)F)c4)c3)nc2n(CC)c1=O` [Compound A, 3-ethyl-1-propyl-8-(1-(3-(trifluoromethyl)benzyl)-1H-pyrazol-4-yl)-1H-purine-2,6(3H,7H)-dione], in assay [1], the “No VT (number of animals)” value was determined as 10 and the “VT (number of animals)” value is reported as 1. The “increase in LVESV” value in assay [2] (100 mg/kg once daily oral gavage from 1 week post-MI) was “significantly reduced”. This compound returned an LVEF in assay [2] (1 week post-MI (start of dosing), Compound A group) of 53.1±3.2%. For the same compound, in assay [2] (5 weeks post-MI, 100 mg/kg once daily oral gavage from 1 week post-MI, vehicle 40.7±2.2), the LVEF is on record as 55.6±2.6%. Moreover, the “intensity of the leukocyte (CD45+) infiltrate, CD45 expression at Western blot” value in assay [3] is reported as “significantly reduced”. Further, in assay [4], the “mice alive at 28 days after coronary artery ligation surgery” value was determined as 75%. Further, in assay [5], the “effect of NECA on HCM (IL-6 release)” value is recorded as “completely abolished”.
